Test results published in ChEMBL document CHEMBL4483862, “Open-source discovery of chemical leads for next-generation chemoprotective antimalarials” (2018).
pIC50: −log10 of the molar value.

System: Plasmodium berghei
Assay: Luciferase/luciferin-expressing antifolate-resistant parasites were used to infect a culture of HepG2 cells that were pre-incubated with compounds. Infected hepatocytes emit light due to the luciferase reaction. Assay results are presented as the percent inhibition of light emission compared to control. […]
Type: functional
Settings: sporozoite; for IC90: read-out: LUCIFERASE INFECTION ASSAY - IC90

`CC(C)(C)c1ccc(-c2cnc3cnc(-c4ccc(N)nc4)cn23)cc1` showed a pIC50 (PBLUC_HILL_SLOPE 8.01, PBLUC_R_SQUARED 0.801, read-out: LUCIFERASE INFECTION ASSAY - IC50) of 5.47 and an IC90 of 4.41 µM.

Work on `CN(C)C(=O)c1ccc(-c2cnc3cnc(-c4ccccc4Oc4ccccc4)cn23)cc1` yielded a pIC50 (PBLUC_HILL_SLOPE 8.03, PBLUC_R_SQUARED 0.291, read-out: LUCIFERASE INFECTION ASSAY - IC50) of 5.56 and an IC90 of 3.65 µM.

`CS(=O)(=O)Nc1cccc(-c2cnc3ccc(Cc4ccc(F)cc4)nn23)c1` showed a pIC50 (PBLUC_HILL_SLOPE 7.81, PBLUC_R_SQUARED 0.241, read-out: LUCIFERASE INFECTION ASSAY - IC50) of 5.41 and an IC90 of 5.12 µM.

With `CCOC(=O)c1[nH]c(CN2CCN(c3ccccc3)CC2)c(C(=O)OCC)c1C` the pIC50 (PBLUC_HILL_SLOPE 7.85, PBLUC_R_SQUARED 0.611, read-out: LUCIFERASE INFECTION ASSAY - IC50) was 5.08 and the IC90 was > 10 µM.

For `CSc1sc(NC(=O)Nc2ccc(Cl)cc2)cc1S(=O)(=O)C(C)C`, the pIC50 (PBLUC_HILL_SLOPE 7.91, PBLUC_R_SQUARED 0.357, read-out: LUCIFERASE INFECTION ASSAY - IC50) was 5.17 and the IC90 was > 8.15 µM.

For `O=C(Nc1nc(-c2c[nH]c3ccccc23)cs1)c1cc(=O)[nH]c2ccccc12`, the pIC50 (PBLUC_HILL_SLOPE 7.71, PBLUC_R_SQUARED 0.559, read-out: LUCIFERASE INFECTION ASSAY - IC50) was 5.03 and the IC90 was > 10 µM.

In the case of `C(=N\c1ccccc1-n1cccc1)/c1cnc(-c2ccccc2)[nH]1`, the pIC50 (PBLUC_HILL_SLOPE 8.03, PBLUC_R_SQUARED 0.709, read-out: LUCIFERASE INFECTION ASSAY - IC50) was < 4.97 and the IC90 was > 10.6 µM.

In the case of `COCCCN1C(=O)N(Cc2ccccc2)C(=O)C12CCN(CCC(C)c1ccc(C)o1)CC2` (stereo not given), the pIC50 (PBLUC_HILL_SLOPE 7.49, PBLUC_R_SQUARED 0.22, read-out: LUCIFERASE INFECTION ASSAY - IC50) was 5.20 and the IC90 was > 7.06 µM.

With `C=CCN(CC=C)C(CNc1ccc2nnc(C(F)(F)F)n2n1)C(C)C` (stereo not given) the pIC50 (PBLUC_HILL_SLOPE 8.1, PBLUC_R_SQUARED 0.171, read-out: LUCIFERASE INFECTION ASSAY - IC50) was 5.08 and the IC90 was > 10 µM.

In the case of `CN(C)C(=O)Oc1ccc2c(-c3ccccc3)cc(=O)oc2c1`, the pIC50 (PBLUC_HILL_SLOPE 7.62, PBLUC_R_SQUARED 0.0613, read-out: LUCIFERASE INFECTION ASSAY - IC50) was < 4.97 and the IC90 was > 10.7 µM.

For `NC(=O)C1CCN(c2cc(-c3nc4ccccc4s3)c3ccccc3n2)CC1`, the pIC50 (PBLUC_HILL_SLOPE 7.92, PBLUC_R_SQUARED 0.452, read-out: LUCIFERASE INFECTION ASSAY - IC50) was 5.08 and the IC90 was > 10 µM.

`O=C(NCCOc1ccc2ccccc2c1)c1ccccc1O` was tested, and the pIC50 (PBLUC_HILL_SLOPE 7.72, PBLUC_R_SQUARED 0.601, read-out: LUCIFERASE INFECTION ASSAY - IC50) was 5.03 and the IC90 was > 10 µM.

`Cc1ccc(C(=O)OC(C)C(=O)N2CCCC2)cc1S(=O)(=O)N1CCCCC1` (stereo not given) showed a pIC50 (PBLUC_HILL_SLOPE 7.98, PBLUC_R_SQUARED 0.937, read-out: LUCIFERASE INFECTION ASSAY - IC50) of 5.98 and an IC90 of 1.37 µM.

With `Cc1nn(-c2ccccc2)c(C)c1C(=O)ONC(=N)c1cccc(Cl)c1` the pIC50 (PBLUC_HILL_SLOPE 7.89, PBLUC_R_SQUARED 0.243, read-out: LUCIFERASE INFECTION ASSAY - IC50) was 5.11 and the IC90 was > 8.95 µM.

`O=C(CSc1ccccc1)Nc1nc2ccccn2c1C(=O)NC1CCCC1` was tested, and the pIC50 (PBLUC_HILL_SLOPE 8.28, PBLUC_R_SQUARED 0.442, read-out: LUCIFERASE INFECTION ASSAY - IC50) was 5.13 and the IC90 was > 8.37 µM.

With `NNC(=S)c1cc(Cl)cc(Cl)c1` the pIC50 (PBLUC_HILL_SLOPE 7.79, PBLUC_R_SQUARED 0.6, read-out: LUCIFERASE INFECTION ASSAY - IC50) was 5.24 and the IC90 was 7.72 µM.

In the case of `CCC(CC)c1nn(CC(=O)c2cc(C)n(CCOC)c2C)c(=N)s1`, the pIC50 (PBLUC_HILL_SLOPE 8.4, PBLUC_R_SQUARED 0.0548, read-out: LUCIFERASE INFECTION ASSAY - IC50) was 5.04 and the IC90 was > 10 µM.

With `Fc1ccc(-c2nc(CSc3nc(NC4CC4)c4ccccc4n3)cs2)cc1` the pIC50 (PBLUC_HILL_SLOPE 8, PBLUC_R_SQUARED 0.651, read-out: LUCIFERASE INFECTION ASSAY - IC50) was 5.43 and the IC90 was 4.9 µM.

`Cc1sc2nc(-c3cccnc3)nc(N(C)Cc3cccnc3)c2c1C` showed a pIC50 (PBLUC_HILL_SLOPE 7.84, PBLUC_R_SQUARED 0.586, read-out: LUCIFERASE INFECTION ASSAY - IC50) of 5.14 and an IC90 of 9.64 µM.

`CCCCCCN(C(=O)COC(=O)c1c(C)[nH]c(C2CC2)nc1=O)c1nc(-c2ccccc2)cs1` gave a pIC50 (PBLUC_HILL_SLOPE 8.31, PBLUC_R_SQUARED 0.597, read-out: LUCIFERASE INFECTION ASSAY - IC50) of 5.45 and an IC90 of 4.6 µM.

Compound `CN(C)S(=O)(=O)c1ccc(SCC(=O)c2ccc(C(C)(C)C)cc2)nc1` has a pIC50 (PBLUC_HILL_SLOPE 8.24, PBLUC_R_SQUARED 0.558, read-out: LUCIFERASE INFECTION ASSAY - IC50) of 5.41 and an IC90 of 5.05 µM.

In the case of `O=C(Nc1cccc(C(F)(F)F)c1)Nc1ccc2nc(-c3ccc(F)c(Cl)c3)nn2c1`, the pIC50 (PBLUC_HILL_SLOPE 7.54, PBLUC_R_SQUARED 0.257, read-out: LUCIFERASE INFECTION ASSAY - IC50) was 5.41 and the IC90 was 5.2 µM.

For `O=C(Cn1c(=O)oc2ccccc21)N1CCCC1c1nc2ccccc2s1` (stereo not given), the pIC50 (PBLUC_HILL_SLOPE 7.81, PBLUC_R_SQUARED 0.364, read-out: LUCIFERASE INFECTION ASSAY - IC50) was 5.08 and the IC90 was > 10 µM.

With `CC(C)(NCC(=O)Nc1ccccc1C(N)=O)c1ccc2c(c1)OCO2` the pIC50 (PBLUC_HILL_SLOPE 7.96, PBLUC_R_SQUARED 0.17, read-out: LUCIFERASE INFECTION ASSAY - IC50) was < 5.00 and the IC90 was > 10 µM.

`COC(=O)c1cc(CNCC(O)COc2ccc(C(C)(C)CC(C)(C)C)cc2)ccc1OC` (stereo not given) was tested, and the pIC50 (PBLUC_HILL_SLOPE 7.71, PBLUC_R_SQUARED 0.722, read-out: LUCIFERASE INFECTION ASSAY - IC50) was 5.46 and the IC90 was 4.63 µM.

For `COc1ccc(-c2cc([N+](=O)[O-])ccc2OCC(=O)NC(=O)NCCC(C)C)cc1`, the pIC50 (PBLUC_HILL_SLOPE 8.25, PBLUC_R_SQUARED 0.103, read-out: LUCIFERASE INFECTION ASSAY - IC50) was 5.03 and the IC90 was > 10 µM.

In the case of `Cc1ccc(NC(=O)Nc2ccc3nc(-c4ccsc4)nn3c2)cc1`, the pIC50 (PBLUC_HILL_SLOPE 7.59, PBLUC_R_SQUARED 0.413, read-out: LUCIFERASE INFECTION ASSAY - IC50) was 5.06 and the IC90 was > 10 µM.

In the case of `CNc1nc2cnc(Nc3ccc(OC(F)(F)F)cc3)cc2n1-c1cccc(C(F)(F)F)c1`, the pIC50 (PBLUC_HILL_SLOPE 7.78, PBLUC_R_SQUARED 0.568, read-out: LUCIFERASE INFECTION ASSAY - IC50) was 5.10 and the IC90 was > 10 µM.

In the case of `CC(C)n1ncc2c(C(=O)N3CCN(CC(=O)N4CCCC4)CC3)cc(-c3ccccc3)nc21`, the pIC50 (PBLUC_HILL_SLOPE 8.22, PBLUC_R_SQUARED 0.426, read-out: LUCIFERASE INFECTION ASSAY - IC50) was 5.38 and the IC90 was 5.42 µM.

For `CCOC(=O)c1c(-c2csc(Nc3ccccn3)n2)c(C)n(CC)c1C`, the pIC50 (PBLUC_HILL_SLOPE 7.74, 2.96, PBLUC_R_SQUARED 0.584, 0.552, read-out: LUCIFERASE INFECTION ASSAY - IC50) was 5.03 and the IC90 was > 10 µM.

In the case of `O=C(Nc1nc2c(-c3ccccc3)c(C(F)(F)F)sc2s1)c1ccc(Cl)cc1`, the pIC50 (PBLUC_HILL_SLOPE 7.81, PBLUC_R_SQUARED 0.676, read-out: LUCIFERASE INFECTION ASSAY - IC50) was 5.20 and the IC90 was > 7.52 µM.

In the case of `Cc1nnc(SCc2cc(=O)n3nc(C)c(-c4ccc(F)cc4)c3[nH]2)s1`, the pIC50 (PBLUC_HILL_SLOPE 8.42, PBLUC_R_SQUARED 0.168, read-out: LUCIFERASE INFECTION ASSAY - IC50) was 5.12 and the IC90 was > 8.52 µM.

With `O=C(Nc1ccccc1-c1nc(=O)c2ccccc2[nH]1)C12CC3CC(CC(C3)C1)C2` the pIC50 (PBLUC_HILL_SLOPE 7.56, PBLUC_R_SQUARED 0.487, read-out: LUCIFERASE INFECTION ASSAY - IC50) was 5.05 and the IC90 was > 10 µM.

In the case of `COC(=O)c1cc(CSc2nc3ccccc3c(=O)n2-c2ccc(OC)cc2)oc1C`, the pIC50 (PBLUC_HILL_SLOPE 8.32, PBLUC_R_SQUARED 0.0862, read-out: LUCIFERASE INFECTION ASSAY - IC50) was < 5.00 and the IC90 was > 10 µM.

For `COc1ccc(Br)cc1/C=C/C(=O)c1ccc(OCC#N)cc1`, the pIC50 (PBLUC_HILL_SLOPE 7.84, PBLUC_R_SQUARED 0.11, read-out: LUCIFERASE INFECTION ASSAY - IC50) was 5.02 and the IC90 was > 10 µM.

`COC(=O)c1ccc(NC(=O)c2ccc(-c3cccc(Br)c3)nc2C)s1` was tested, and the pIC50 (PBLUC_HILL_SLOPE 7.52, PBLUC_R_SQUARED 0.673, read-out: LUCIFERASE INFECTION ASSAY - IC50) was 5.04 and the IC90 was > 10 µM.

`CC1(C)CC2CC(C)(CN2C(=O)CN2CCN(c3cccc(C(F)(F)F)c3)CC2)C1` (stereo not given) was tested, and the pIC50 (PBLUC_HILL_SLOPE 7.96, PBLUC_R_SQUARED 0.534, read-out: LUCIFERASE INFECTION ASSAY - IC50) was 5.04 and the IC90 was > 10 µM.

`CC(C)(C)c1ccc(-c2cnc3cnc(-c4cccnc4)cn23)cc1` showed a pIC50 (PBLUC_HILL_SLOPE 7.55, PBLUC_R_SQUARED 0.755, read-out: LUCIFERASE INFECTION ASSAY - IC50) of 5.42 and an IC90 of 5.11 µM.

With `COc1ccc(-c2cnc3cnc(-c4cccc(C)c4C)cn23)cn1` the pIC50 (PBLUC_HILL_SLOPE 7.63, PBLUC_R_SQUARED 0.171, read-out: LUCIFERASE INFECTION ASSAY - IC50) was 5.06 and the IC90 was > 9.99 µM.

Work on `Clc1ccc2c(NCc3ccccc3)ccnc2c1` yielded a pIC50 (PBLUC_HILL_SLOPE 8.08, PBLUC_R_SQUARED 0.339, read-out: LUCIFERASE INFECTION ASSAY - IC50) of 5.50 and an IC90 of 4.19 µM.
